Data on 27 molecules can be found in patent US9274109B2, “Gut flora-derived extracellular vesicles, and method for searching for a disease model, vaccine, and candidate drug and for diagnosis using the same” (AEON MEDIX INC., priority 2009, dated 2016).

Structures can show the parent of a compound that is named as a salt. Where two headings read alike, the source gives them in different places.

Test [1] concerns mouse macrophages (RAW 264.7). Nature of the test: In vitro screening: extracellular vesicle-induced IL-6 secretion from macrophages. The conditions noted are these: RAW264.7, 15 h, read-out: level of IL-6 as percentage of the positive control (kinase inhibitors). It counts as cell-based. On the procedure:
FIG. 35 is a schematic diagram showing the discovery of substances inhibitory of the gut flora-derived extracellular vesicles-induced release of IL-6. The mouse macrophages (RAW 264.7) were treated for 15 hours with the gut flora-derived extracellular vesicles (100 ng/ml) alone, separated by the method of Example 3, or in combination with a drug candidate (10 μM), in a 37° C. incubator. The culture media was collected and centrifuged at 4° C., 500×g for 10 min and then at 4° C., 3000×g for 20 min. IL-6 in the supernatant was quantitatively analyzed by ELISA. These processes account, at least in part, for a method for in vitro screening drug candidates inhibitory of the gut flora-derived extracellular vesicle-induced secretion of IL-6, by which drug candidates preventive or therapeutic of gut flora-derived extracellular vesicles-caused diseases can be provided.
According to the method established in Example 12, mouse macrophages (RAW 264.7) were treated with neither extracellular vesicles nor any drug candidate (negative control), with E. coli-derived extracellular vesicles (0.1 μg/ml) alone (positive control) or with the extracellular vesicles (0.1 μg/ml) in combination with 10 μM of one selected from among 80 different kinase inhibitors ((kinase inhibitor library, BIOMOL No. 2832: PD-98059, U-0126, SB-203580, H-7, H-9, AG-494, AG-825, Lavendustin A, RG-14620, Tytphostin 23, Tytphostin 25, Tytphostin 46, Tytphostin 47, Tytphostin 51, Tytphostin 1, Tytphostin 9, Tytphostin AG 1288, Tytphostin AG 1478, Tytphostin AG 1295, HNMPA, Damnacanthal, Piceatannol, AG-490, AG-126, AG-370, AG-879, LY 294002, Wortmannin, GF 109203X, Hypericin, Sphingosine, H-89, H-8, HA-1004, HA-1077, HDBA, KN-62, KN-93, ML-7, ML-9, 2-Aminopurine, N9-Isopropyl-olomoucine, Olomoucine, iso-olomoucine, Roscovitine, LFM-A13, SB-202190, ZM 336372, SU 4312, AG-1296, Rottlerin, Genistein, Daiazein, Erbstatin analog, Quercetin dehydrate, SU 1498, ZM 449829, DRB (5,6-Dichloro-1-b-D-ribofuranosylbenzimidazole), HBDDE (2,2′,3,3′,4,4′-Hexahydroxy-1,1′-biphenyl-6,6′-dimethanol dimethyl ether), Indirubin, Indirubin-3′-monoxime, Y-27632, Kenpaullone, Terreic acid, BML-257, BML-259, Apigenin, BML-265 (Erlotinib analog), Rapamycin). After 15 hours of treatment, IL-6 was quantitatively analyzed by ELISA.

The test system of test [2] is mouse peritoneal macrophages. The test can be described thus: Ex vivo IL-6 release from mouse peritoneal macrophages with E. coli-derived extracellular vesicles. It counts as cell-based. The conditions noted are these: 10 μM prodrug. As to the method:
FIG. 41 is a graph showing IL-6 levels obtained by treating mouse peritoneal macrophages with 10 μM prodrugs in the presence of E. coli-derived extracellular vesicles (EC_EV)

Test [3] has as its system mouse macrophages (RAW 264.7). The test can be described thus: In vitro screening: extracellular vesicle-induced IL-6 secretion from macrophages. It counts as cell-based. To be noted: for activity at 10 µM: Mus musculus, RAW 264.7, vesicles 100 ng/ml.
Test [4] concerns mouse macrophages (RAW 264.7). Nature of the test: IL-6 secretion from macrophages treated with extracellular vesicles from small intestinal fluid. It counts as cell-based. To be noted: RAW 264.7, ELISA, versus vesicles alone. The source says:
Extracellular vesicles were separated from small intestinal fluids of normal mice and DSS-induced mouse model of […]. To this end, mice were operated on to excise the small intestine. The peyer's patch and liquid were removed from the excised small intestine which was then cut at regular lengths of about 5 cm. The intestinal pieces were transversely cut and washed with physiological saline to remove impurities therefrom. They were again cut into pieces with dimensions of 1 cm×1 cm and vortexed five times for five sec per time in 30 mL of physiological saline. After the removal of intestinal tissues and impurities by centrifugation, the supernatant was ultra-centrifuged to separate extracellular vesicles.
FIGS. 3 and 4 show the secretion of the inflammatory cytokine IL-6 in mouse macrophages (RAW 264.7) treated with various concentrations of the extracellular vesicles separated from the small intestinal fluids of normal mice and DSS-induced mouse models of IBD.
FIG. 5 provides the results after an experiment was done to see whether the exracellular vesicles from the DSS-induced mouse model of IBD contained those derived from Gram-negative bacteria.
For orientation: In an ELISA, binding on a coated surface is turned into a signal by an enzyme label.

The subject of the next test is C57BL/6 mice. The test can be described thus: In vivo serum IL-6 in extracellular vesicle-induced sepsis mouse model. To be noted: 10 mg/kg i.p.; vesicles 5 μg i.p.; 6 hours; ELISA. As to the method:
In vivo assay was performed to examine whether the prodrugs discovered in Example 15 exert anti-inflammatory effects in the body. To this end, the sepsis mouse models that were established by the intraperitoneal injection of 5 μg of E. coli-derived extracellular vesicles into C57BL/6 mice (male, 6 weeks old, 4 mice in each group) as in Example 6 was intraperitoneally injected with Haloperidol and Doxepein at a dose of 10 mg/kg, each. Sera were taken 6 hours later.

Setting [5] is: RAW264.7, 15 h, read-out: IL-6 level as percentage of the positive control (prodrugs).

Consider `C=CC(=O)c1ccc2ccccc2c1` [ZM449829, 1-(2-Naphthalenyl)-2-propen-1-one], for which the activity at 10 µM in test [1] is less than 50%. For the molecule `CN(C)CCCN1c2ccccc2CCc2ccccc21` [Imipramine], in test [2], the “IL-6 release from mouse peritoneal macrophages” value (“IL-6 release” below) was “inhibitory effect”. The activity at 10 µM in test [3] (setting [5]) is less than 80%. As to `NS(=O)(=O)c1cc2c(cc1Cl)NC(C(Cl)Cl)NS2(=O)=O` (centres unmarked) [Trichlormethiazide], the activity at 10 µM in test [3] (setting [5]) was less than 80%.

For the molecule `CC(C)(C)c1ccc(C(O)CCCN2CCC(C(O)(c3ccccc3)c3ccccc3)CC2)cc1` (centres unmarked) [Terfenadine], in test [2], the “IL-6 release” value is on record as “inhibitory effect”. Also, the activity at 10 µM in test [3] (setting [5]) was less than 80%.

Turning to `CN(C)CCC=C1c2ccccc2CCc2ccccc21` [Amitriptyline], in test [2], the “IL-6 release” value was “inhibitory effect”. In addition, the activity at 10 µM in test [3] (setting [5]) is less than 80%. As for `Cl.Cl.OCCN1CCN(CCCN2c3ccccc3Sc3ccc(C(F)(F)F)cc32)CC1` [Fluphenazine dichloride], the “IL-6 release” value in test [2] was “inhibitory effect”. Regarding `O=c1cc(-c2ccc(O)cc2)oc2cc(O)cc(O)c12` [Apigenin, 5,7-dihydroxy-2-(4-hydroxyphenyl)chromen-4-one], the activity at 10 µM in test [1] was less than 50%. With `O=c1n(CCCN2CCN(c3cccc(Cl)c3)CC2)nc2ccccn12` [Trazodone], in test [2], the “IL-6 release” value is listed as “inhibitory effect”. Moreover, in test [3] (setting [5]), the activity at 10 µM was less than 80%. With `COc1ccc2c(c1)c(OC(C)C)c(C(N)=O)[s+]2[O-]` (centres unmarked) [PD-144795, 5-methoxy-3-(1-methylethoxy)benzo(b)thiophene-2-carboxamide-1-oxide], the “IL-6 secretion at graded concentrations” value in test [3] (0.1, 1, 5, 10 μM, vesicles 100 ng/ml) is “inhibits IL-6 secretion in a dose-dependent manner”. The activity at 10 µM in test [3] (RAW264.7, 10 μM, read-out: IL-6 level as percentage of the positive control (phosphatase inhibitors)) was less than 50%. On to `CN(C)CCC=C1c2ccccc2C=Cc2ccccc21` [Cyclobenzaprine], for which, in test [2], the “IL-6 release” value is “inhibitory effect”. For the same molecule, the activity at 10 µM in test [3] (setting [5]) was less than 80%. In the case of `CC1CNCCN1S(=O)(=O)c1cccc2cnccc12` (centres unmarked) [H-7, 5-(2-methylpiperazin-1-yl)sulfonylisoquinoline dihydrochloride], the activity at 10 µM in test [1] was less than 50%. Same read-out and setting: for `CN(C)CCCn1cc(C2=C(c3c[nH]c4ccccc34)C(=O)NC2=O)c2ccccc21` [GF109203X, 3-[1-[3-(dimethylamino)propyl]indol-3-yl]-4-(1H-indol-3-yl)pyrrole-2,5-dione] the value was less than 50%. `COc1ccc(CCN(C)CCCC(C#N)(c2ccc(OC)c(OC)c2)C(C)C)cc1OC` (centres unmarked) [Verapamil]: in test [3] (setting [5]), the activity at 10 µM is less than 80%.

With `CC(C)c1cnc(NC(=O)Cc2ccccc2)s1` [BML-259, N-(5-Isopropylthiazol-2-yl)phenylacetamide], the activity at 10 µM in test [1] is less than 50%. Turning to polymyxin B, in test [4], the “secretion of IL-6 induced by extracellular vesicles from DSS-induced IBD mice, in combination with polymyxin B” value was “decreased”. For the molecule `CNCCCN1c2ccccc2CCc2ccccc21` [Desipramine], the “IL-6 release” value in test [2] was “inhibitory effect”. In addition, in test [3] (setting [5]), the activity at 10 µM is less than 80%. In the case of `O=S(=O)(c1cccc2c(I)cccc12)N1CCCNCC1` [ML-7, 1-(5-iodonaphthalen-1-yl)sulfonyl-1,4-diazepane hydrochloride], the activity at 10 µM in test [1] is less than 50%. Turning to `CNCCCC12CCC(c3ccccc31)c1ccccc12` [Maprotiline], the “IL-6 release” value in test [2] is recorded as “inhibitory effect”. Further, the activity at 10 µM in test [3] (setting [5]) was less than 80%. On the same counts, the results for `Cc1c(Cl)cccc1Nc1ccccc1C(=O)O` [Tolfenamic acid] are “inhibitory effect” and less than 80%. With `O=C(CCCN1CCC(O)(c2ccc(Cl)cc2)CC1)c1ccc(F)cc1` [Haloperidol], the “IL-6 release” value in test [2] was “inhibitory effect”. The “serum IL-6 level” value with C57BL/6 mice is reported as “effectively suppressed”. Besides, the activity at 10 µM in test [3] (setting [5]) was less than 80%. On to `Cc1ccccc1C(OCCN(C)C)c1ccccc1` (centres unmarked) [Orphenadrine], for which the “IL-6 release” value in test [2] is given as “inhibitory effect”. For the same molecule, the activity at 10 µM in test [3] (setting [5]) was less than 80%. As to `O=C1N=c2ccccc2=C1c1[nH]c2ccccc2c1NO` [Indirubin-3′monoxime, 3-[3-(hydroxyamino)-1H-indol-2-yl]indol-2-one], in test [1], the activity at 10 µM was less than 50%.

As for `O=S(=O)(c1cccc2c(Cl)cccc12)N1CCCNCC1` [ML-9, 1-(5-chloronaphthalen-1-yl)sulfonyl-1,4-diazepane hydrochloride], the activity at 10 µM in test [1] was less than 50%. Take `O=C1Cc2c([nH]c3ccc(Br)cc23)-c2ccccc2N1` [Kenpaullone, 9-bromo-7,12-dihydro-5H-indolo[3,2-d][1]benzazepin-6-one]: in test [1], the activity at 10 µM was less than 50%. Take `OC[C@H]1O[C@H](n2cnc3cc(Cl)c(Cl)cc32)[C@@H](O)[C@H]1O` [DRB, (2S,3S,4R,5R)-2-(5,6-dichlorobenzimidazol-1-yl)-5-(hydroxymethyl)oxolane-3,4-diol]: in test [1], the activity at 10 µM was less than 50%. Consider `CN(C)CCC=C1c2ccccc2COc2ccccc21` [Doxepin], for which the “IL-6 release” value in test [2] is “inhibitory effect”. The “serum IL-6 level” value in the test on C57BL/6 mice was “effectively suppressed”. Besides, the activity at 10 µM in test [3] (setting [5]) is less than 80%.

In the case of `O=c1cc(N2CCOCC2)oc2c(-c3ccccc3)cccc12` [LY294002, 2-morpholin-4-yl-8-phenylchromen-4-one], the activity at 10 µM in test [1] is less than 50%.
